Measurements as given in article PMC11855827, “High-Throughput Screening of Five Compound Libraries for Anthelmintic Activity and Toxicity Leads to the Discovery of Two Flavonoid Compounds” (International Journal of Molecular Sciences, 2025).
Read-outs that look alike come from different tables or passages of the source.

System: C. elegans
Experiment: microbe, parasite or virus in culture
Conditions: Caenorhabditis elegans
[1] = 0 h, read-out: Percentage of motility inhibition 0 h, Table S2, C. elegans SS assay, 110 μM, 0 h, averages of 4 data points
[2] = 24 h, read-out: Percentage of motility inhibition 24 h, Table S2, C. elegans SS assay, 110 μM, 24 h, averages of 4 data points
[3] = 0 h, read-out: Percentage of motility inhibition 0 h
[4] = 24 h, read-out: Percentage of motility inhibition 24 h

## C[C@@H]1O[C@@H](O[C@H]2[C@H](OC(=O)[C@]34CCC(C)(C)C[C@H]3C3=CC[C@@H]5[C@@]6(C)C[C@H](O)[C@H](O[C@@H]7O[C@H](CO)[C@@H](O)[C@H](O)[C@H]7O)C(CO)(CO)[C@@H]6CC[C@@]5(C)[C@]3(C)C[C@H]4O)OC[C@H](O)[C@@H]2O)[C@H](O)[C@H](O)[C@H]1O[C@@H]1OC[C@@H](O)[C@H](O[C@@H]2OC[C@](O)(CO)[C@H]2O)[C@H]1O [Platycodin D]
[1]
  inhibition at 110 µM: 0%
[2]
  inhibition at 110 µM: 15%

## CCCSc1ccc2nc(NC(=O)OC)[nH]c2c1 [Albendazole]
[3]
  inhibition at 110 µM: 17%
[4]
  inhibition at 110 µM: 6%

## COc1ccc(-c2oc3cc(O)cc(O)c3c(=O)c2O)cc1 [Kaempferide]
[1]
  inhibition at 110 µM: 49%
[2]
  inhibition at 110 µM: 0%

## N[C@@H](CS)C(=O)O [L-Cysteine]
[1]
  inhibition at 110 µM: 4%
[2]
  inhibition at 110 µM: 7%

## Cc1ncc([N+](=O)[O-])n1CCO [Metronidazole]
[1]
  inhibition at 110 µM: 34%
[2]
  inhibition at 110 µM: 14%

## Nc1[nH]c(=O)ncc1F [Flucytosine]
[1]
  inhibition at 110 µM: 23%
[2]
  inhibition at 110 µM: 32%

## COc1cc2c(cc1OC)[C@H](C)NCC2 [Salsolidine]
[1]
  inhibition at 110 µM: 0%
[2]
  inhibition at 110 µM: 0%

## C[C@@H]1O[C@@H](O[C@H]2[C@H](Oc3cc(O)c4c(c3)O[C@H](c3ccc(O)cc3)CC4=O)O[C@H](CO)[C@@H](O)[C@@H]2O)[C@H](O)[C@H](O)[C@H]1O [Naringin]
[1]
  inhibition at 110 µM: 0%
[2]
  inhibition at 110 µM: 3%

## O=C1O[C@H]([C@@H](O)CO)C(O)=C1O [L-Ascorbic acid]
[1]
  inhibition at 110 µM: 5%
[2]
  inhibition at 110 µM: 9%

## COc1cc(O)c(CC=C(C)C)c(O)c1C(=O)/C=C/c1ccc(O)cc1 [Xanthohumol]
[1]
  inhibition at 110 µM: 23%
[2]
  inhibition at 110 µM: 13%

## C=C[C@H]1CN2CC[C@]3(C(=O)Nc4ccccc43)[C@@H]2C[C@@H]1/C(=C\OC)C(=O)OC [Corynoxeine]
[1]
  inhibition at 110 µM: 0%
[2]
  inhibition at 110 µM: 2%

## COc1cc2cc(c1Cl)N(C)C(=O)CC(O)C1(C)OC1C(C)C1CC(O)(NC(=O)O1)C(OC)/C=C/C=C(\C)C2 (stereo not shown) [Maytansinol]
[1]
  inhibition at 110 µM: 0%
[2]
  inhibition at 110 µM: 0%

## C=CCCCCCCCCC(=O)O [10‐Undecenoic acid]
[1]
  inhibition at 110 µM: 60%
[2]
  inhibition at 110 µM: 67%

## Cc1[nH]ccc2c1[nH]c1cc(=O)ccc12 [Harmol]
[1]
  inhibition at 110 µM: 0%
[2]
  inhibition at 110 µM: 0%

## O=c1cc(-c2ccc(O)c(O)c2)oc2cc(O)c([C@@H]3O[C@H](CO)[C@@H](O)[C@H](O)[C@H]3O)c(O)c12 [Isoorientin]
[1]
  inhibition at 110 µM: 6%
[2]
  inhibition at 110 µM: 22%

## O=C[C@H](O)[C@@H](O)[C@H](O)CO [Xylose]
[1]
  inhibition at 110 µM: 17%
[2]
  inhibition at 110 µM: 11%

## COc1cc(-c2oc3cc(O)cc(O)c3c(=O)c2O)ccc1O [Isorhamnetin]
[1]
  inhibition at 110 µM: 22%
[2]
  inhibition at 110 µM: 2%

## O=c1[nH]c(=O)n([C@H]2C[C@H](O)[C@@H](CO)O2)cc1/C=C/Br [Brivudine]
[3]
  inhibition at 110 µM: 6%
[4]
  inhibition at 110 µM: 14%

## CN1C(=O)C(O)CC1c1cccnc1 (stereo not shown) [Hydroxycotinine]
[1]
  inhibition at 110 µM: 13%
[2]
  inhibition at 110 µM: 0%

## C#C[C@]1(O)CC[C@H]2[C@@H]3CCc4cc(O)ccc4[C@H]3CC[C@@]21C [Ethinylestradiol]
[1]
  inhibition at 110 µM: 33%
[2]
  inhibition at 110 µM: 15%

## Nc1nc(N)c(O[C@@H]2O[C@H](CO)[C@@H](O)[C@H](O)[C@H]2O)c(=O)[nH]1 [Vicine]
[1]
  inhibition at 110 µM: 0%
[2]
  inhibition at 110 µM: 0%

## O=[N+]([O-])c1cncn1CCN1CCOCC1 [Nimorazole]
[1]
  inhibition at 110 µM: 0%
[2]
  inhibition at 110 µM: 0%

## CCCCCCCCCCCCCCCCCC(=O)O [Stearic acid]
[1]
  inhibition at 110 µM: 0%
[2]
  inhibition at 110 µM: 1%

## O=[N+]([O-])C(Br)(CO)CO [Bronopol]
[1]
  inhibition at 110 µM: 19%
[2]
  inhibition at 110 µM: 24%

## O=C1Nc2ccccc2C1=O [Isatin]
[1]
  inhibition at 110 µM: 25%
[2]
  inhibition at 110 µM: 3%

## COc1ccc2c(c1OC)CC1c3c(cc4c(c3-2)OCO4)CCN1C (stereo not shown) [Crebanine]
[1]
  inhibition at 110 µM: 0%
[2]
  inhibition at 110 µM: 4%
